System: reactive oxygen species within cryopreserved mouse sperm
Test: Intracellular reactive oxygen species by CM-H2DCFDA dye and flow cytometry after tert-butyl hydroperoxide challenge
Assay type: cell-based
Conditions: for level of reactive oxygen species within cryopreserved mouse sperm (relative fluorescence): C57BL/6 sperm, diluted 1:1 with solution supplemented with 954 mM MTG, 1 mM GSH or 2 mM DTT before freezing, FIGS. 7A and 7B
Procedure: Sperm cryopreserved in the presence and absence of the free radical scavenger, the reducing agent monothioglycerol (MTG), are loaded with the green fluorescent dye CM-H2DCFDA to measure intracellular reactive oxygen species. The sperm are challenged with varying levels of Tert-Butylhydrogen peroxide to induce oxidative damage and green fluorescence is measured using flow cytometry.
For example, the capability to reduce ROS can be tested by a dye/sperm method as described in Example 4 and also see publications by Nelid et al 2006 and Guthrie and Welch 2006. Either fresh or cryopreserved sperm can be used in this assay. For example, sperm collected from the vas deferens and epididymis of two C57BL/6J mice into 1 mL of a solution containing 3% skim milk (w/v; BD Diagnostics; cat #232100) and 18% raffinose (w/v; Sigma; cat #R7630). A fraction of the collected sperm was diluted 1:1 in the same skim milk raffinose solution while another fraction was diluted 1:1 using the skim milk raffinose solution supplemented with […] monothioglycerol (MTG; Sigma Aldrich; cat #M6145). Another set of C57BL/6J males was used to collect sperm and dilute in the skim milk raffinose solution with 1 mM glutathione (GSH; Sigma Aldrich; cat #G6013) or 2 mM dithiothreitol (DTT; Sigma Aldrich; cat #646563). The sperm was cryopreserved as described in Example 1 and stored in liquid nitrogen for at least 24 hours.
To determine if MTG, GSH or DTT can act as a free radical scavenger, the sperm were thawed and loaded with the green fluorescent dye 5-(and-6)-chloromethyl-2′,7′-dichlorodihydrofluorescein diacetate (CM-H2DCFDA; Invitrogen C6827). This dye is a cell-permeant indicator for reactive oxygen species that is nonfluorescent until removal of the acetate groups by intracellular esterases and oxidation occurs within the cell. The emission of fluorescence correlates with ROS generation as a result of DCFH oxidation. To load the sperm, at least 150 μL of sperm were thawed and diluted 1:1 in a sperm incubation media described by Bath et al. ((Bath 2003); 123 mM NaCl; 4.7 mM KCl; 0.2 mM MgSO4.7H2O; 10 mM;NaHCO3 21 mM HEPES; 0.33 mM sodium pyruvate; 4.6 mM glucose; 100 IU/mL penicillin G; 1.33 mg/mL BSA). The lyophilized dye was resuspended in dimethylsulfoxide to a concentration of 432.5 μM and then added to the cells, such that the final dye concentration was 40 μM. […] The samples were loaded onto either a FACScan (BD Biosciences; Franklin Lakes, N.J.) or FACSCalibur (BD Biosciences; Franklin Lakes, N.J.) flow cytometer and the green fluorescence was measured on at about 5,000 viable sperm. […]

SMILES	level of reactive oxygen species within cryopreserved mouse sperm (relative fluorescence)	ROS in cryopreserved sperm (green fluorescence) (sperm from C57BL/6J (B6) and BALB/cByJ (BALB/cBy) mice, FIG. 3)
O[C@H](CS)[C@H](O)CS (racemic) [DTT, dithiothreitol]	limited the level of ROS	–
OCC(O)CS (stereo not shown) [MTG, monothioglycerol]	limited the level of ROS	reduces the ROS
N[C@@H](CCC(=O)N[C@@H](CS)C(=O)NCC(=O)O)C(=O)O [GSH, reduced glutathione]	limited the level of ROS	–

Source: patent US8420307B2, “Sperm cryoprotective media” (The Jackson Laboratory, priority 2006, dated 2013)
